Where a name gives a salt, the structure may show the parent alone.
Biological target: T1, ENaC (Homo sapiens, UniProt P37088+P51168+P51170)
T1 construct: host or cells: primary human bronchial epithelial cells (HBECs), differentiated at an air-liquid interface
T1 sequence (P37088 1-669): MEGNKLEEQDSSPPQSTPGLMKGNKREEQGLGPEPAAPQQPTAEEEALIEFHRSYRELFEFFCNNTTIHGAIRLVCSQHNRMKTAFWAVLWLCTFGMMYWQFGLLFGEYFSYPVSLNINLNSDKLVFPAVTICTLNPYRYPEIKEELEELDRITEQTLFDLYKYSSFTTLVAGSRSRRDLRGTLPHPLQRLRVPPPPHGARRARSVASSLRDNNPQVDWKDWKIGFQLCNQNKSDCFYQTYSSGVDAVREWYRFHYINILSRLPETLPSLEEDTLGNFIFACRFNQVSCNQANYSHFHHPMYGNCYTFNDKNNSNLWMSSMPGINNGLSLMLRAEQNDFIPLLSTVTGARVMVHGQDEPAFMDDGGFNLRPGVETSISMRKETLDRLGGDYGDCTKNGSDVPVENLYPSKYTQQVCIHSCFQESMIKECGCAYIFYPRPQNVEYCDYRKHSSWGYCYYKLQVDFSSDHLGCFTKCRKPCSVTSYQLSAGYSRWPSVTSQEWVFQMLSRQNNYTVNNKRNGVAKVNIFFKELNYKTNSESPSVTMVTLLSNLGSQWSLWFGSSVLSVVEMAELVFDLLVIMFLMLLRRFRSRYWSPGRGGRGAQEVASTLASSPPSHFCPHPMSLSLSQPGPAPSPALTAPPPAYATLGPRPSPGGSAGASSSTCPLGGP
T1 sequence (P51168 1-640): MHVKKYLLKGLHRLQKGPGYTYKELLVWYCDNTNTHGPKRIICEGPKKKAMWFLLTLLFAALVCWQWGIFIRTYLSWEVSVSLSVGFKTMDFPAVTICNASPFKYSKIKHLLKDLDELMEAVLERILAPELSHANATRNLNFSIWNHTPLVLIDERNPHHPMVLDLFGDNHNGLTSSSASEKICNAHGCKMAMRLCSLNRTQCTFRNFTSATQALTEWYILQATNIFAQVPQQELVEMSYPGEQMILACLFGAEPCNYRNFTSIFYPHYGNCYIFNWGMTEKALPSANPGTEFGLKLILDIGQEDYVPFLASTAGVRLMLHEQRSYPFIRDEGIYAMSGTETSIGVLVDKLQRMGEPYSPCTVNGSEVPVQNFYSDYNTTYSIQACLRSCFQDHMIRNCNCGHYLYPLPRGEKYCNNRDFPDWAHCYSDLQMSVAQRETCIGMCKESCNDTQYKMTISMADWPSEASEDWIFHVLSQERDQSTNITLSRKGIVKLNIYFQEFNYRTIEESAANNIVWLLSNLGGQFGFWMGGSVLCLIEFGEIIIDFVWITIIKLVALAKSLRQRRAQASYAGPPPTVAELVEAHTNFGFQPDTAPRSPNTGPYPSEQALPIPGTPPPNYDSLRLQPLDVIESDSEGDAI
T1 sequence (P51170 1-649): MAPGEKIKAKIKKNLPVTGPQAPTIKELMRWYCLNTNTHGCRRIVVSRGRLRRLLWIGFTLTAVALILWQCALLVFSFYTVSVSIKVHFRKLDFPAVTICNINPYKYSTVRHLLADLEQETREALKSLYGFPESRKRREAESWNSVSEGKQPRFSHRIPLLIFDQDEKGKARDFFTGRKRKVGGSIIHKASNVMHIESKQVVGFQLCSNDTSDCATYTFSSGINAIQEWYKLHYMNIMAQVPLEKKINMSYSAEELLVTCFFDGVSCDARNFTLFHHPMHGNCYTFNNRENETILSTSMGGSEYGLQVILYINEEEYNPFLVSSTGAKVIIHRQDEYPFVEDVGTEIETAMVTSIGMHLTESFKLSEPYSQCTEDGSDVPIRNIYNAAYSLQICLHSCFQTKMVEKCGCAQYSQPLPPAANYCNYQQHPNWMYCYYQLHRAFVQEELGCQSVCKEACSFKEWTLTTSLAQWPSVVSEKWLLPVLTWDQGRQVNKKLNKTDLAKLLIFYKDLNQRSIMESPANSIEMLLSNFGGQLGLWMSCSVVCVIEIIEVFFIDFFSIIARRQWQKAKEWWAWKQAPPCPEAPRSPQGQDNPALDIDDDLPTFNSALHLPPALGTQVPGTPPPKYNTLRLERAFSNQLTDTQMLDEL
Test: Short circuit current assay to determine ENaC blocker potency in human bronchial epithelial cells
Type: cell-based
Conditions: 50% inhibition of the total amiloride-sensitive short-circuit current (ISC) in human bronchial epithelial cells (HBECs) at air-liquid interface; apical addition; read-out: Averages · ENaC IC50 (nM) Avg
Experimental: Example 6 Short circuit current assay to determine ENaC blocker potency in human bronchial epithelial cells
Cell culture Human bronchial epithelial cells (HBECs) (Lonza, UK) were cultured using a modification of the method described by Coote et al, (2008). Cells were seeded into plastic T-75 flasks and grown in Bronchial Epithelial Cell Growth Medium (BEGM) (Lonza, UK) supplemented with bovine pituitary extract (52 ng/mL), hydrocortisone (0.5 μg/mL), human recombinant Epidermal Growth Factor (0.5 ng/mL), epinephrine (0.5 ng/mL), transferrin (10 ng/mL), insulin (5 ng/mL), retinoic acid (0.1 ng/mL), triiodothyronine (6.5 ng/mL), gentamycin (50 μg/mL) and amphotericin-B (50 ng/mL). Medium was changed every 48 hours until cells were 90% confluent. Cells were then passaged and seeded (8.25×10^5 cells/insert) onto polycarbonate Snapwell™ inserts (Costar, UK) in differentiation media containing 50% DMEM in BGEM with the same supplements as above but without triiodothyronine and a final retinoic acid concentration of 50 nM (all-trans retinoic acid; Sigma-Aldrich, UK). Cells were maintained submerged for the first 7 days in culture after which time they were exposed to an apical air interface for the remainder of the culture period. From the first day of establishment of an ALI, HBEC were fed with a DMEM:HAMS F-12 (1:1) media containing 2% Ultroser G (Pall BioSepra, France) with gentamycin (50 μg/mL) and amphotericin B (50 ng/mL). Cells were used for short-circuit current assay between days 14-21 after the establishment of the ALI. At all stages of culture, cells were maintained at 37° C. in 5% CO2 in an air incubator.
Short-Circuit Current (ISC) Measurements
Snapwell inserts were mounted in Costar Vertical Diffusion Chambers (Costar, UK) and were bathed with continuously gassed Ringer solution (5% CO2 in O2; pH 7.4) maintained at 37° C. containing (in mM): 120 NaCl, 25 NaHCO3, 3.3 KH2PO4, 0.8 K2HPO4, 1.2 CaCl2, 1.2 MgCl2 and 10 glucose. The solution osmolarity was always between 280-300 mOsm/kg H2O for all physiological salt solutions used. Cells were voltage clamped to 0 mV (model EVC4000, WPI). Transepithelial resistance (RT) was measured by applying a 2 mV pulse at 30 s intervals and calculating RT by Ohm's law. Data were recorded using a PowerLab workstation (ADInstruments, UK).
ENaC blocker compounds were added to the apical chamber from a 1000-fold stock solution (prepared in DMSO) to achieve a cumulative concentration response in terms of the inhibition of the basal ISC. At the completion of the concentration response, a supra-maximal concentration of amiloride (10 μM) was added. The concentration of test compound that induced a 50% inhibition of the total amiloride-sensitive ISC (IC50) was calculated using GraphPad Prism v6.05. […]

First: CCn1c(CNC(=O)c2nc3cn[nH]c3nc2N)[n+](CC)c2ccc(C(=O)N3CCC(N(C[C@H](O)[C@@H](O)[C@H](O)[C@H](O)CO)C[C@H](O)[C@@H](O)[C@H](O)[C@H](O)CO)CC3)cc21 [Example 4, 2-[({6-amino-1H-pyrazolo[3,4-b]pyrazin-5-yl}formamido)methyl]-6-(4-{bis[(2S,3R,4R,5R)-2,3,4,5,6-pentahydroxyhexyl]amino}piperidine-1-carbonyl)-1,3-diethyl-1H-1,3-benzodiazol-3-ium trifluoroacetic acid trifluoroacetate]
Second: CCn1c(CNC(=O)c2nc3cn[nH]c3nc2N)[n+](CC)c2ccc(C(=O)O)cc21 [Example 3]
The IC50 of the first is 2.3-fold lower: 47 nM for the first, 106 nM for the second. The first is the more potent here.

Going from `CCn1c(CNC(=O)c2nc3c(C)n[nH]c3nc2N)[n+](CC)c2ccc(OC)cc21` [Example 1, 2-[({6-amino-3-methyl-1H-pyrazolo[3,4-b]pyrazin-5-yl}formamido)methyl]-1,3-diethyl-6-methoxy-1H-1,3-benzodiazol-3-ium trifluoroacetate] to `CCn1c(CNC(=O)c2nc3c(C)n[nH]c3nc2N)[n+](CC)c2ccc(C(=O)O)cc21` [Example 2, 2-[({6-amino-3-methyl-1H-pyrazolo[3,4-b]pyrazin-5-yl}formamido)methyl]-6-carboxy-1,3-diethyl-1H-1,3-benzodiazol-3-ium formate], the IC50 rises from 2 nM to 91.5 nM (46-fold). The first is the more potent here.
